Columns and labels:
Test in all cases: NCI-60 SRB screen
Type in all cases: cell-based
melanoma SK-MEL-5 = details: Homo sapiens; SK-MEL-5, 10^–5 Molar; read-out: Percent growth inhibition
Method in brief: (§1)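 Growth inhibition derived from SRB-stained protein read at […], normalised to cell density at drug addition and to drug-free controls. Exposure: 48 h at 10^−5 M in RPMI 1640 with L-glutamine and fetal bovine serum.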

UO-31 = details: Homo sapiens; UO-31, 10^–5 Molar; read-out: Percent growth inhibition
Method in brief: (§2)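 After a 24 h pre-incubation, the cells received test compound at a single 10^−5 M dose and were incubated a further 48 h. Endpoint was SRB dye binding.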

SF-268 = details: Homo sapiens; SF-268, 10^–5 Molar; read-out: Percent growth inhibition
Method in brief: as §1

OVCAR-8 = details: Homo sapiens; OVCAR-8, 10^–5 Molar; read-out: Percent growth inhibition
Method in brief: as §2

SNB-75 = details: Homo sapiens; SNB-75, 10^–5 Molar; read-out: Percent growth inhibition
Method in brief: as §2

MCF7 = details: Homo sapiens; MCF7, 10^–5 Molar; read-out: Percent growth inhibition
Method in brief: as §2

MALME-3M = details: Homo sapiens, 10^–5 Molar, read-out: Percent growth inhibition
Method in brief: as §1

LOX IMVI = details: Homo sapiens, 10^–5 Molar, read-out: Percent growth inhibition
Method in brief: as §1

NCI-H226 = details: Homo sapiens; NCI-H226, 10^–5 Molar; read-out: Percent growth inhibition
Method in brief: as §1

SW-620 = details: Homo sapiens; SW-620, 10^–5 Molar; read-out: Percent growth inhibition
Method in brief: as §2

A549/ATCC = details: Homo sapiens, 10^–5 Molar, read-out: Percent growth inhibition
Method in brief: as §2

NCI-H322M = details: Homo sapiens, 10^–5 Molar, read-out: Percent growth inhibition
Method in brief: as §2

KM12 = details: Homo sapiens; KM12, 10^–5 Molar; read-out: Percent growth inhibition
Method in brief: as §1

CCRF-CEM = details: Homo sapiens, 10^–5 Molar, read-out: Percent growth inhibition
Method in brief: as §2

NCI/ADR-RES = details: Homo sapiens, 10^–5 Molar, read-out: Percent growth inhibition
Method in brief: as §1

SF-539 = details: Homo sapiens; SF-539, 10^–5 Molar; read-out: Percent growth inhibition
Method in brief: as §2

SNB-19 = details: Homo sapiens; SNB-19, 10^–5 Molar; read-out: Percent growth inhibition
Method in brief: as §1

ACHN = details: Homo sapiens, 10^–5 Molar, read-out: Percent growth inhibition
Method in brief: as §1

K-562 = details: Homo sapiens, K562; K-562, 10^–5 Molar; read-out: Percent growth inhibition
Method in brief: as §1

CAKI-1 = details: Homo sapiens; CAKI-1, 10^–5 Molar; read-out: Percent growth inhibition
Method in brief: as §2

EKVX = details: Homo sapiens, 10^–5 Molar, read-out: Percent growth inhibition
Method in brief: as §2

HS 578T = details: Homo sapiens, 10^–5 Molar, read-out: Percent growth inhibition
Method in brief: as §2

786-0 = details: Homo sapiens; 786-0, 10^–5 Molar; read-out: Percent growth inhibition
Method in brief: as §1

PC-3 = details: Homo sapiens; PC-3, 10^–5 Molar; read-out: Percent growth inhibition
Method in brief: as §1

NCI-H23 = details: Homo sapiens; NCI-H23, 10^–5 Molar; read-out: Percent growth inhibition
Method in brief: as §2

T-47D = details: Homo sapiens, T47D, 10^–5 Molar, read-out: Percent growth inhibition
Method in brief: as §1

In the case of `CCn1cc(C(=O)NN=Cc2cccs2)c(=O)c2cc(F)c(N3CCNC(C)C3)c(F)c21` (centres unmarked) [Compound 3e, 1-Ethyl-6,8-difluoro-7-(3-methylpiperazin-1-yl)-4-oxo-N'-(thiophen-2-ylmethylene)-1,4-dihydroquinoline-3-carbohydrazide], the inhibition at 10 µM (melanoma SK-MEL-5) is reported as 30.2%, the inhibition at 10 µM (UO-31) is reported as 33.2% and the inhibition at 10 µM (SF-268) is reported as 20.9%. For the same compound, the inhibition at 10 µM (OVCAR-8) was 56.2%, the inhibition at 10 µM (SNB-75) was 11.5% and the inhibition at 10 µM (MCF7) was 177%. For the same compound, the inhibition at 10 µM (MALME-3M) was 137%, the inhibition at 10 µM (LOX IMVI) was 184% and the inhibition at 10 µM (NCI-H226) was 24%. The inhibition at 10 µM (SW-620) was 117%, the inhibition at 10 µM (A549/ATCC) was 56% and the inhibition at 10 µM (NCI-H322M) was 15.9%. It also gave an inhibition at 10 µM (KM12) of 16.5%, an inhibition at 10 µM (CCRF-CEM) of 32.8% and an inhibition at 10 µM (NCI/ADR-RES) of 32.1%. The inhibition at 10 µM (SF-539) was 15.8%, the inhibition at 10 µM (SNB-19) was 27.1% and the inhibition at 10 µM (ACHN) was 12.8%. For the same compound, the inhibition at 10 µM (K-562) was 139%, the inhibition at 10 µM (CAKI-1) was 53.5% and the inhibition at 10 µM (EKVX) was 65.9%. The inhibition at 10 µM (HS 578T) was 13.9%, the inhibition at 10 µM (786-0) was 32.2% and the inhibition at 10 µM (PC-3) was 23.7%. The inhibition at 10 µM (NCI-H23) was 10.2% and the inhibition at 10 µM (T-47D) was 22.2%.
